Results on 1 compound are retold here after patent publication US12560591B2, “Methods of treatment with CD8 T cell-mediated immune therapy” (Providence Health & Services—Oregon, priority 2019, dated 2026).

The target of one experiment is T1, ALK4 (Homo sapiens, UniProt P36896).
T1 sequence (P36896 24-505): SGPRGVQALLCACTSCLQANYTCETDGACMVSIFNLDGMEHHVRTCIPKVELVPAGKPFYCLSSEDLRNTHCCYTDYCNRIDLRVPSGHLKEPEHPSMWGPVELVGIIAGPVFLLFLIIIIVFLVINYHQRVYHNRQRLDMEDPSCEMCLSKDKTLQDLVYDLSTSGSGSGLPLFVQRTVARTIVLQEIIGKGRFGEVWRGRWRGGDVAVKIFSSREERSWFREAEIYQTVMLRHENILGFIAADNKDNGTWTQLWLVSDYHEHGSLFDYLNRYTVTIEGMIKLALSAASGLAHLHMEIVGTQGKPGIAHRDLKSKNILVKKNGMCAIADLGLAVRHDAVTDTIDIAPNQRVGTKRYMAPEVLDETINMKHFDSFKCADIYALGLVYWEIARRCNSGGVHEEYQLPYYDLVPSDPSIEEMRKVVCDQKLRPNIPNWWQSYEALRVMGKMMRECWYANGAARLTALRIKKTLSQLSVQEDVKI
Particulars: reported in Lahn et al., Drug Des. Devel. Ther. 2015; cited from earlier work.

Experiment [1] deals with tumor infiltrating immune cells. In words: FACS analysis of tumor-infiltrating immune cells after LY treatment. The experiment is classed as in vivo, mouse. (In general: Flow cytometry measures light scatter and fluorescence of single cells or particles in a stream.)
Experiment [2] concerns peripheral blood CXCR3^+CD45^+CD3^+CD4^− T cells. In words: Clinical trial NCT02688712: peripheral blood CXCR3 flow cytometry, baseline vs day 15. In kind it is in vivo, human. Particulars: rectal cancer patients, after two weeks of LY2157299, majority of patients, FIG. 12C. From the text:
FIGS. 12A-12E are a series of panels showing TGFβ-mediated suppression of CXCR3-dependent CD8^+ T cell chemotaxis is relieved by LY2157299 in human patients with rectal cancer. […] FIG. 12B illustrates the clinical trial schema for a phase II clinical trial of rectal cancer patients and sample collection intervals. Patients receive two cycles of LY2157299 on days 1-14 and again on days 30-43 while receiving standard of care chemoradiation on days 15-57 prior to surgery. […] Patients are grouped by nodal status following neoadjuvant treatment (ypN). On the right, percent change in frequency of CXCR3^+CD3^+CD4^− T cells between days 1 and 15 is shown versus the neoadjuvant rectal (NAR) score. […] Each patient is shown (thin gray lines) along with the mean of all patients (thick black line). […] Error bars in each subpanel are standard deviations.
Clinical trial analysis: Patients enrolled in clinical trial NCT02688712 provided consent prior to tissue collection as designed and approved in PHS IRB #15-050. […] Pathological assessment for neoadjuvant treatment response was evaluated in the surgical resection specimen including excised lymph nodes. Neoadjuvant rectal (NAR) score was calculated by the published, validated formula (George et al, Curr. Colorectal Cancer Rep. 11: 275-280): [5*ypN−3(cT−ypT)+12]^2/9.61. […]

The next experiment relates to CXCR3^+CD8^+ T cells. Description: FACS analysis of CXCR3^+CD8^+ T cells in CT26 tumor bearing mice. Particulars: preclinical modeling, 7 days treatment, FIG. 10E. The experiment is classed as in vivo, mouse. As to the method:
FIGS. 10A-10E show CD8^+ T cell proliferation is suppressed by the tumor microenvironment, but TGF13 inhibition can increase tumor trafficking. […] Ki67^+CD8^+ T cells was determined by FACS analysis of lymph nodes and MC38 tumors of WT and ALK5^ΔCD8 mice (FIG. 10B).
Flow Cytometry: For ex vivo cytokine analysis, cells were first treated with a 1× cell activation cocktail of PMA/ionomycin/Brefeldin A (Biolegend) for 5 hours in complete RPMI media. One million cells from single cell suspensions were stained with anti-CD16/CD32 Fc block (1:200, BD Biosciences) and fixable viability 700 dye (1:10,000, BD Biosciences) in 1×PBS for 15 min. at 37° C. prior to surface and intracellular staining with primary antibodies. Surface staining commenced in 200 μl FACS buffer supplemented with a 1:4 dilution of Brilliant Violet stain buffer (BD Biosciences) and fluorescently conjugated antibodies (Table 1) for 30 min at 4° C. in the dark; all are mouse reactive antibodies unless otherwise indicated. Following surface staining cells were washed and fixed in either 2% PFA or Fix/Perm buffer (eBioscience) for 20 min at 4° C. for intracellular stain. Fix/perm buffer was washed with 1× perm wash buffer (eBioscience) and intracellular proteins were stained with fluorescently conjugated ICS antibodies in perm wash buffer for 30 min. at 4° C. in the dark. […]

[3] abbreviates: LY-treated vs vehicle animals, day 14, FIG. 8E.

The structures appear in SMILES notation.

In the case of `Cc1cccc(-c2nn3c(c2-c2ccnc4ccc(C(N)=O)cc24)CCC3)n1` [LY2157299], the “Kd for ALK4 compared with ALK5” value at ALK4 was “lower Kd for ALK4 than ALK5”. The “tumor-infiltrating effector population (tSNE of flow cytometric data)” value in experiment [1] (LY versus vehicle control treated animals, data not shown) is on record as “enrichment of the tumor-infiltrating effector population”. For the same compound, in experiment [1] (setting [3]), the “CD8^+ T cells infiltrating tumors” value is recorded as “more CD8^+ T cells”; the “macrophages and Tregs infiltrating tumors” value is “fewer macrophages and Tregs”. Also, the “percentage of CD8^+ T cells expressing EOMES and Tbet” value in experiment [1] (spleens, lymph nodes and CT26 tumors of LY-treated mice, FIG. 8F) is “increase”. In addition, the “peripheral blood CXCR3 expression, change day 0 to day 15” value in experiment [2] is on record as “decrease in peripheral blood CXCR3 expression”. In the experiment on CXCR3^+CD8^+ T cells, the “CXCR3^+CD8^+ T cells following treatment” value is “increase in CXCR3^+CD8^+ T cells”.
